From patent US10813888B2, “Formulations of cysteamine and cysteamine derivatives” (RECORDATI INDUSTRIA CHIMICA E FARMACEUTICA SPA, priority 2016, dated 2020)

Assay: In vitro dissolution test, USP Apparatus II at pH 1.2 for 1 hour
Type: physicochemical
Experimental: The in vitro dissolution tests were conducted in an USP Apparatus II at pH 1.2 for 1 hour. The cysteamine bitartrate raw material was completely dissolved in 10 minutes.

NCCS.O=C(O)C(O)C(O)C(=O)O (stereo not shown) [cysteamine bitartrate raw material, cysteamine bitartrate]
time to complete dissolution: 10 min
